Here are results for 16 molecules from patent US12396961B2, “Compounds and compositions for intracellular delivery of agents” (ModernaTX, Inc., priority 2015, dated 2025).

The nature of series [1]: Particle size and polydispersity index (Zetasizer Nano ZS). The class given is physicochemical. An excerpt:
Nanoparticle compositions may be characterized by a variety of methods. For example, microscopy (e.g., transmission electron microscopy or scanning electron microscopy) may be used to examine the morphology and size distribution of a nanoparticle composition. Dynamic light scattering or potentiometry (e.g., potentiometric titrations) may be used to measure zeta potentials. Dynamic light scattering may also be utilized to determine particle sizes. Instruments such as the Zetasizer Nano ZS (Malvern Instruments Ltd, Malvern, Worcestershire, UK) may also be used to measure multiple characteristics of a nanoparticle composition, such as particle size, polydispersity index, and zeta potential.
A Zetasizer Nano ZS (Malvern Instruments Ltd, Malvern, Worcestershire, UK) can be used to determine the particle size, the polydispersity index (PDI) and the zeta potential of the nanoparticle compositions in 1×PBS in determining particle size and 15 mM PBS in determining zeta potential.

Series [2] concerns luciferase (Luc) mRNA expression. The experiment in a line: Expression of Luc, bioluminescence (total flux) after intravenous administration to mice. The note with it: for Luc expression in mice compared with MC3 (Table 7a): in words; for Total flux (Luc expression), comparison in words over the time points of the table named: mice i.v. 0.5 mg/kg, 3, 6, 24 hours. It is filed as in vivo. How it is done:
In order to monitor how effectively various nanoparticle compositions deliver therapeutic and/or prophylactic agents to targeted cells, different nanoparticle compositions including a particular therapeutic and/or prophylactic agent (for example, a modified or naturally occurring RNA such as an mRNA) are prepared and administered to rodent populations. Mice are intravenously, intramuscularly, intraarterially, or intratumorally administered a single dose including a nanoparticle composition with a formulation such as those provided in Table 1. In some instances, mice may be made to inhale doses. Dose sizes may range from 0.001 mg/kg to 10 mg/kg, where 10 mg/kg describes a dose including 10 mg of a therapeutic and/or prophylactic agent in a nanoparticle composition for each 1 kg of body mass of the mouse. A control composition including PBS may also be employed.
Upon administration of nanoparticle compositions to mice, dose delivery profiles, dose responses, and toxicity of particular formulations and doses thereof can be measured by enzyme-linked immunosorbent assays (ELISA), bioluminescent imaging, or other methods. For nanoparticle compositions including mRNA, time courses of protein expression can also be evaluated. Samples collected from the rodents for evaluation may include blood, sera, and tissue (for example, muscle tissue from the site of an intramuscular injection and internal tissue); sample collection may involve sacrifice of the animals.
The efficacy of the nanoparticle compositions presented in Tables 1, la, 17-1, 19-1, 20-1 and 21-1 was evaluated with a bioluminescence study. Formulations were administered intravenously to mice (n=6) at a dosage of 0.5 mg/kg (mpk) and bioluminescence measured at 3, 6, and 24 hour time points. The standard MC3 formulation and a PBS control were evaluated for comparison.

The test system is the same in series [3]. In words: Luc expression (AUC) in CD-1 mice relative to MC3. The class given is in vivo. The note with it: for Lipid/MC3 Luc CD-1 (mice): Luc expression relative to MC3, CD-1 mice; for Lipid/MC3 AUC CD-1 mice 0.5 mpk: Table 7b, Luc expression. On the procedure: FIG. 15 is a graph summarizing luciferase expression levels at 6 h after administration of nanoparticle compositions containing compounds of the disclosure to CD-1 mice at a dose of 0.5 mpk. Total light flux values were acquired via body luminescent imaging (BLI) 6 h after administration. In this Figure, the numbers 1-7 and 10 refer to the compositions containing Compounds 4-10 and MC3 respectively.
In contrast, hEPO expression in rats induced by administration of nanoparticle composition including compound according to one of formulae (I), (Ia1)-(Ia6), (Ib), (II), (IIa), (III), and (IIIa) was substantially lower than that measured for MC3. […] Table 7c and 7d show additional protein expressions and clearance data from compositions with various compounds disclosed herein as compared to with MC3.

Series [4] deals with LDLr mRNA / Luc expression. The experiment in a line: Expression (AUC) in LDLr−/− mice relative to KL22. The class given is in vivo. The note with it: Table 7b.
For series [5], the system named is hEPO mRNA expression. In words: Expression of hEPO in mice (CD-1). Conditions: for Lipid/MC3 AUC: Table 7e, hEPO expression, CD-1 mice, 0.5 mpk. It is filed as in vivo, CD-1 mice. The text has this:
FIG. 12 is a set of graphs illustrating hEPO expression levels in CD-1 mice dosed with compounds of the disclosure, compared to MC3. PBS is used as control. […] In graphs A-C numbers 1-14 refer to compositions containing the following: 1: Compound 73, 2: Compound 80, 3: Compound 70; 4: Compound 81; 5: Compound 69; 6: Compound 82; 7: Compound 83; 8: Compound 62; 9: Compound 84; 10: Compound 85; 11: Compound 86; 12: Compound 87; 13: MC3; 14: PBS.
FIG. 13 is a graph showing hEPO levels (pg/mL) in CD-1 mice up to −25 h after administration of a nanoparticle composition containing compounds of the disclosure, compared to a composition containing MC3. Numbers 1-13 refer to compositions containing the following: 1: Compound 73, 2: Compound 80, 3: Compound 70; 4: Compound 81; 5: Compound 69; 6: Compound 82; 7: Compound 83; 8: Compound 62; 9: Compound 84; 10: Compound 85; 11: Compound 86; 12: Compound 87; 13: MC3. […]

Series [6] has as its system hEPO mRNA expression. The experiment in a line: Expression of hEPO after intravenous administration to rats. It is filed as in vivo. Conditions: rats i.v.; 3, 6, 24 hours. How it is done:
PBS (phosphate buffered saline) is used as control.
Formulations were prepared according to Table 5 and included mRNA encoding hEPO.
[…] After the 48 hour time point, livers and spleens were harvested and frozen.

The mark [7] stands for this setting: Table 1, DOPE 40:20:38.5:1.5, Luc mRNA.

`CCCCCCCCCCCCN(CCCCCCCCCCCC)CCN(CCCCCCCCCCCC)CCN1CCN(CCN(CCCCCC(=O)OCCCCC)CCCCCC(=O)OCCCCC)CC1` [Compound 14, Dipentyl 6,6′-((2-(4-(2-((2-(didodecylamino)ethyl)(dodecyl)amino)ethyl)piperazin-1-yl)ethyl)azanediyl)dihexanoate] had a PDI in series [1] (setting [7]) of 0.008. Also, the “Luc expression in mice compared with MC3 (Table 7a)” value in series [2] is on record as “significantly lower”. Further, the “Lipid/MC3 Luc CD-1 (mice)” value in series [3] is on record as 0.070.
As for `CCCCCCCCCCCCN(CCCCCCCCCCCC)CCN1CCN(Cc2ccc(OC)cc2)CC1` [Compound 19-5, N-Dodecyl-N-(2-(4-(4-methoxybenzyl)piperazin-1-yl)ethyl)dodecan-1-amine], the “Total flux (Luc expression), comparison in words over the time points of the table named” value in series [2] is listed as “next highest flux”.
Consider `CCCCCCCCCCCCN(CCCCCCCCCCCC)CCN(CCCCCCCCC)CC(=O)N1CCN(C(=O)CN(CCCCCCCCC)CCCCCCCCC)CC1` [Compound 6, 2-((2-(Didodecylamino)ethyl)(nonyl)amino)-1-(4-(dinonylglycyl)piperazin-1-yl)ethan-1-one], for which, in series [1] (setting [7]), the PDI is 0.160. Also, the “Lipid/KL22 AUC LDLr−/− mice 0.5 mpk, LDLr” value in series [4] is 0.37. Besides, the “Lipid/MC3 AUC CD-1 mice 0.5 mpk” value in series [3] is 1.72.
`CCCCCCCCCCCCN(CCCCCCCCCCCC)CCN1CCNCC1` [Compound 19-2, N-Dodecyl-N-(2-(piperazin-1-yl)ethyl)dodecan-1-amine]: the “Total flux (Luc expression), comparison in words over the time points of the table named” value in series [2] is recorded as “lowest total flux”.
Take `CCCCCCCCCN(CCCOC(=O)CCCCC)CCC(=O)N1CCN(C(=O)CCN(CCCCCCCCC)CCN(CCCCCCCCC)CCCCCCCCC)CC1` [Compound 86, 3-((3-(4-(3-((2-(Dinonylamino)ethyl)(nonyl)amino)propanoyl)piperazin-1-yl)-3-oxopropyl)(nonyl)amino)propyl Hexanoate]: in the series with hEPO mRNA expression [5], the “Lipid/MC3 AUC” value was found to be 0.49.
In the case of `CCCCCCCCCCCCN(CCCCCCCCCCCC)CC(=O)N1CCN(C(=O)CN(CCCCCCCCC)CCN(CCCCCCCCC)CCCCCCCCC)CC1` [Compound 8, 2-(Didodecylamino)-1-(4-(N-(2-(dinonylamino)ethyl)-N-nonylglycyl)piperazin-1-yl)ethan-1-one], the PDI in series [1] (setting [7]) is listed as 0.110. Moreover, the “Lipid/KL22 AUC LDLr−/− mice 0.5 mpk, LDLr” value in series [4] was determined as 3.74. For the same molecule, the “Lipid/MC3 AUC CD-1 mice 0.5 mpk” value in series [3] is given as 2.33.
The like results for `CCCCCCCCCCCCN(CCCCCCCCCCCC)CCN(CCCCCCCCC)CC(=O)N1CCN(C(=O)CN(CCCCCCCCCCCC)CCCCCCCCCCCC)CC1` [Compound 10, 2-(Didodecylamino)-1-(4-(N-(2-(didodecylamino)ethyl)-N-nonylglycyl)piperazin-1-yl)ethan-1-one] were, in that order, 0.130, 0.71 and 1.14.
As to `CCCCCCCCCCCCN(CCCCCCCCCCCC)CCN(CCCCCCCCCCCC)CCN1CCN(CCN(CCCCCCCCCCCC)CCCCCC(=O)OCCCCC)CC1` [Compound 12, Pentyl 6-((2-(4-(2-((2-(didodecylamino)ethyl)(dodecyl)amino)ethyl)piperazin-1-yl)ethyl)(dodecyl)amino)hexanoate], in series [1] (setting [7]), the PDI was 0.096. The “Luc expression in mice compared with MC3 (Table 7a)” value in series [2] is on record as “significantly lower”. Also, the “hEPO expression in mice compared with MC3 (Table 7a)” value with hEPO mRNA expression [5] (mice, in words) was “substantially higher”. Also, the “Lipid/MC3 Luc CD-1 (mice)” value in series [3] is 0.21.
The molecule `CCCCCCCCCCCCN(CCCCCCCCCCCC)CC(=O)N1CCN(C(=O)CN(CCCCCCCCCCCC)CCN(CCCCCCCCC)CCCCCCCCC)CC1` [Compound 9, 2-(Didodecylamino)-1-(4-(N-(2-(dinonylamino)ethyl)-N-dodecylglycyl)piperazin-1-yl)ethan-1-one] came in with a PDI in series [1] (setting [7]) of 0.170. Further, the “Size (nm)” value in series [1] (Table 1, lipid:DOPE:Chol:PEG-DMG 40:20:38.5:1.5, Luc mRNA, MC3 standard formulation) was 78.0 nm. In addition, the “Lipid/KL22 AUC LDLr−/− mice 0.5 mpk, LDLr” value in series [4] came to 0.58. Moreover, the “Lipid/MC3 AUC CD-1 mice 0.5 mpk” value in series [3] is recorded as 0.73.
Regarding `CCCCCCCCCN(CCCCCCCCC)CCC1CCN(C(=O)CN(CCCCCCCCC)CCN(CCCCCCCCC)CCCCCCCCC)C1` (stereo not shown) [Compound 69, 2-((2-(Dinonylamino)ethyl)(nonyl)amino)-1-(3-(2-(dinonylamino)ethyl)pyrrolidin-1-yl)ethan-1-one], in the series on hEPO mRNA expression [5], the “Lipid/MC3 AUC” value is given as 6.52.
With `CCCCC/C=C\C/C=C\CCCCCCCCN(CCO)CCCCCCCCCCCC` [Compound 17-4, 2-(Dodecyl((9Z,12Z)-octadeca-9,12-dien-1-yl)amino)ethan-1-ol], the “Total flux (Luc expression), comparison in words over the time points of the table named” value in series [2] is “substantially higher flux than compositions including Compounds 17-2, 17-3, and 17-7”.
As to `CCCCC/C=C\C/C=C\CCCCCCCCN(CCCCCCCC/C=C\C/C=C\CCCCC)CCN1CCN(CCCCCCCCCCCC)CC1` [Compound 19-6, (9Z,12Z)—N-(2-(4-Dodecylpiperazin-1-yl)ethyl)-N-((9Z,12Z)-octadeca-9,12-dien-1-yl)octadeca-9,12-dien-1-amine], in series [2], the “Total flux (Luc expression), comparison in words over the time points of the table named” value was “next highest flux”.
On the same count and under the same terms, as for `CCCCCCCC/C=C\CCCCCCCCN(CCO)CCCCCCCC/C=C\CCCCCCCC` [Compound 17-8, 2-(Di((Z)-octadec-9-en-1-yl)amino)ethan-1-ol], the entry is “substantially higher flux than compositions including Compounds 17-2, 17-3, and 17-7”.
In the case of `CCCCCCCCCN(CCCC(=O)OCCCCC)CCCC1CCN(C(=O)CCN(CCCCCCCCC)CCN(CCCCCCCCC)CCCCCCCCC)CC1` [Compound 84, Pentyl 4-((3-(1-(3-((2-(dinonylamino)ethyl)(nonyl)amino)propanoyl)piperidin-4-yl)propyl)(nonyl)amino)butanoate], the “Lipid/MC3 AUC” value with hEPO mRNA expression [5] was 1.43.
In turn, `CCCCCCCCCCCCN(CCCCCCCCCCCC)CCN(CCCCCCCCCCCC)CCN1CCN(CCN(CCCCCCCCCCCC(=O)OC)CCCCCCCCCCCC(=O)OC)CC1` [Compound 16, Dimethyl 12,12′-((2-(4-(2-((2-(didodecylamino)ethyl)(dodecyl)amino)ethyl)piperazin-1-yl)ethyl)azanediyl)didodecanoate] yielded a PDI in series [1] (formulated with hEPO mRNA) of 0.140. The “hEPO expression at each time point, comparison in words (Table 6)” value with hEPO mRNA expression [6] is reported as “lowest hEPO expression”.
Consider `CCCCCCCCCN(CCCC(=O)OCCCCC)CCC1CCN(C(=O)CN(CCCCCCCCC)CCN(CCCCCCCCC)CCCCCCCCC)C1` (stereo not shown) [Compound 81, Pentyl 4-((2-(1-(N-(2-(dinonylamino)ethyl)-N-nonylglycyl)pyrrolidin-3-yl)ethyl)(nonyl)amino)butanoate], for which, in the series on hEPO mRNA expression [5], the “Lipid/MC3 AUC” value came to 3.01.
